Where two headings read alike, the source gives them in different places.
Tests used:
AHR [1] = target: T1, AHR (Homo sapiens, UniProt P35869); assay: In vitro assay 2: agonism in human cell line (transactivation assay)
T1 sequence (P35869 11-848): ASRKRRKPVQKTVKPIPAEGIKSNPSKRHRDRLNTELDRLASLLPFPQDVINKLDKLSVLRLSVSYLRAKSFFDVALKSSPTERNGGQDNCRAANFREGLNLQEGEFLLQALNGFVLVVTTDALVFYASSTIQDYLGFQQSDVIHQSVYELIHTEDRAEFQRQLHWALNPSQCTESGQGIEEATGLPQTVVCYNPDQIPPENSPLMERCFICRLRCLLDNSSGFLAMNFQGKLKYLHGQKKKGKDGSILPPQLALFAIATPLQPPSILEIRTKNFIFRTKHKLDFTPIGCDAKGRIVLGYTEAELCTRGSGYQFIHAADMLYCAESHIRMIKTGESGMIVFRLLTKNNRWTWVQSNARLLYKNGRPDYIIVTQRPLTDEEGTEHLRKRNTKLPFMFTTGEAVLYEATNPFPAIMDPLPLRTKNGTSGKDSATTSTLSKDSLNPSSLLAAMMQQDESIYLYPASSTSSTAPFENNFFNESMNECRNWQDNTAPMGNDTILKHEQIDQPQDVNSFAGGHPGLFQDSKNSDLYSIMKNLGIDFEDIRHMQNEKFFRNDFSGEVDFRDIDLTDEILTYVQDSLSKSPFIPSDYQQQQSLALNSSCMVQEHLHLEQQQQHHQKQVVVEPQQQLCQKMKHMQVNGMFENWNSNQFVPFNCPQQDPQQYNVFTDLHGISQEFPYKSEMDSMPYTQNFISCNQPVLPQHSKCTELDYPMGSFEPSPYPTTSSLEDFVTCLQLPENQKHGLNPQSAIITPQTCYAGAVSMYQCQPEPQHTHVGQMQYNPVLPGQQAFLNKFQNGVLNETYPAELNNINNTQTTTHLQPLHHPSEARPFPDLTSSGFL
Procedure: Transactivation Assay in Human Cell Line (In Vitro Assays 1 and 2)
Transactivation assays were carried out in U87 glioblastoma cells (ATCC) endogenously expressing AHR. In addition the cells were stably transfected with an AHR inducible firefly luciferase reporter gene construct that carried AHR-binding sites (DRE) in its promoter and a renilla reporter gene construct with constitutively active promoter.
In Vitro Assay 2: Agonism in Human Cell Line
Cells in medium (tryptophan free RPMI, 1% FCS, 2 mM Glutamine) were grown for 20 hours in absence (negative control) or presence of increasing concentrations of test compounds (typical dilutions: 72 pmol/L, 0.25 nmol/L, 0.89 nmol/L; 3.1 nmol/L, 11 nmol/L, 38 nmol/L, 130 nmol/L, 470 nmol/L, 1.6 μmol/L, 5.7 μmol/L and 20 μmol/L in duplicates). As positive activation control cells were incubated with 300 μM kynurenic acid. Normalization was done by positive and negative controls.
Firefly luciferase activity was determined by the SteadyGlo Luciferase Assay System (Promega, #2520).

[2] = tested on: AHR-regulated gene CYP1A1; assay: In vitro assay 3: AHR-regulated CYP1A1 expression in human cell line (U937, qPCR)
Procedure: In Vitro Assay 3: AHR-Regulated CYP1A1 Expression in Human Cell Line
To assess the AHR inhibitory activity of the substances described in this application, the ability thereof to antagonise ligand-induced AHR gene regulation in a dose-dependent manner was quantified. For this purpose, quantitative PCR analysis was used to determine expression of the AHR-regulated gene CYP1A1 in a human monocytic U937 cell line upon stimulation with 200 μM KA in the presence and absence of AHR inhibitor. U937 cells were sown at a concentration of 2×10^5 cells/well in 100 ul of growth medium (RPMI 1640, 20% FCS) in 96-well microtitre plates. CYP1A1 expression was induced with 200 μM KA (positive control) in the presence or absence of the substances for 6 hours. Human U937 cells were typically incubated with eight different concentrations of the substances (1 nM, 3 nM, 10 nM, 30 nM, 100 nM, 300 nM, 1 μM and 3 μM) and analyzed in duplicate on the same microtitre plate. After stimulation, cells were lysed with Nucleic Acid Lysis Solution (#4305895, Applied Biosystems) and RNA was isolated using the 6100 Nucleic Acid Preparation Station (Applied Biosystems) and reverse-transcribed to cDNA using SuperScript VILO cDNA synthesis kit (#11754-250, Invitrogen). Unstimulated cells were used as the negative control. Taqman probes for human CYP1A1 (Hs01054797_g1) and human HPRT (Hs02800695_m1) were used to analyze fold expression of CYP1A1 of HPRT. Quantitation was performed on a Taqman SDS7900HT.

AHR [3] = target: T1, AHR; assay: In vitro assay 1: antagonism in human cell line (transactivation assay, kynurenic acid prestimulated); conditions: Assay 1: AHR-luc Hum Antagonism IC50 [M], 150 μM kynurenic acid, 20 hours, firefly luciferase
[4] = Assay 2: AHR-luc Hum Agonism IC50 [M], no kynurenic acid, 20 hours, firefly luciferase
[5] = Homo sapiens, U-937, 6 h, read-out: Assay 3: Hum CYP1A1 Antagonism IC50 [M], U937 cells, 200 μM KA, 6 hours, qPCR
[6] = read-out: Assay 2: AHR-luc Hum Agonism IC50, no kynurenic acid, 20 hours, firefly luciferase
[7] = read-out: Assay 3: Hum CYP1A1 Antagonism IC50, U937 cells, 200 μM KA, 6 hours, qPCR

IC50 (AHR [1]; [4]) [M]	IC50 [2, 5] [M]	IC50 (AHR [3]) [M]	IC50 (AHR [1]; [6]) [M]	IC50 [2, 7] [M]	SMILES
	2.23e-08	1.66e-08	> 2e-05		O=C(NC(CO)C1CCC1)c1cc(-c2ccc(Cl)cc2)nn(-c2cccc(F)c2)c1=O (single isomer, unassigned; (-)) [Example 211, (−)-6-(4-Chlorophenyl)-N-(1-cyclobutyl-2-hydroxyethyl)-2-(3-fluorophenyl)-3-oxo-2,3-dihydropyridazine-4-carboxamide]
> 2e-05	8.06e-08	3.9e-08			C[C@H](O)[C@H](C)NC(=O)c1cc(-c2ccc(OC(F)(F)F)cc2)nn(-c2cccc(F)c2)c1=O [Example 185, 2-(3-Fluorophenyl)-N-[(2S,3S)-3-hydroxybutan-2-yl]-3-oxo-6-[4-(trifluoromethoxy)phenyl]-2,3-dihydropyridazine-4-carboxamide]
> 2e-05	1.12e-07	3.97e-08			CN(C)c1ccc(-c2cc(C(=O)NC(CO)C(F)(F)F)c(=O)n(-c3cccc(F)c3)n2)cc1Cl (stereo not drawn) [Example 376, 6-[3-chloro-4-(dimethylamino)phenyl]-2-(3-fluorophenyl)-3-oxo-N-(1,1,1-trifluoro-3-hydroxypropan-2-yl)-2,3-dihydropyridazine-4-carboxamide]
> 2e-05		1.66e-08		1.38e-08	O=C(NCC(O)C(F)F)c1cc(-c2ccc(C(F)(F)F)cc2)nn(-c2cccc(F)c2)c1=O (single isomer, unassigned; (-)) [Example 327, (−)-N-(3,3-difluoro-2-hydroxypropyl)-2-(3-fluorophenyl)-3-oxo-6-[4-(trifluoromethyl)phenyl]-2,3-dihydropyridazine-4-carboxamide]
> 2e-05	5.73e-08	3.05e-08			CC(C)[C@@H](CO)NC(=O)c1cc(-c2ccc(N(C)C)c(Cl)c2)nn(-c2cccc(F)c2)c1=O [Example 375, 6-[3-chloro-4-(dimethylamino)phenyl]-2-(3-fluorophenyl)-N-[(2S)-1-hydroxy-3-methylbutan-2-yl]-3-oxo-2,3-dihydropyridazine-4-carboxamide]
> 2e-05		2.06e-08		3.01e-08	CC(NC(=O)c1cc(-c2ccc(C(F)(F)F)cc2)nn(-c2cccc(F)c2)c1=O)C(O)C(F)(F)F (single isomer, unassigned) [Example 271, Isomer no. 4 of 2-(3-fluorophenyl)-3-oxo-N-(4,4,4-trifluoro-3-hydroxybutan-2-yl)-6-[4-(trifluoromethyl)phenyl]-2,3-dihydropyridazine-4-carboxamide]
> 2e-05	3.4e-08	2.1e-08			C[C@H](NC(=O)c1cc(-c2ccc(C(F)F)cc2)nn(-c2cccc(F)c2)c1=O)C(C)(C)O [Example 383, 6-[4-(difluoromethyl)phenyl]-2-(3-fluorophenyl)-N-[(2S)-3-hydroxy-3-methylbutan-2-yl]-3-oxo-2,3-dihydropyridazine-4-carboxamide]
	6.98e-08	4.92e-08	> 2e-05		O=C(NC(CO)C1CCOC1)c1cc(-c2ccc(Cl)c(F)c2)nn(-c2cccc(F)c2)c1=O (single isomer, unassigned) [Example 293, 6-(4-Chloro-3-fluorophenyl)-2-(3-fluorophenyl)-N-[2-hydroxy-1-(tetrahydrofuran-3-yl)ethyl]-3-oxo-2,3-dihydropyridazine-4-carboxamide]
> 2e-05	3.39e-08	1.81e-08			O=C(N[C@@H]1CCCC(F)(F)[C@H]1O)c1cc(-c2ccc(Cl)cc2)nn(-c2cccc(F)c2)c1=O (single isomer, unassigned) [Example 275, 6-(4-Chlorophenyl)-N-[(trans)-3,3-difluoro-2-hydroxycyclohexyl]-2-(3-fluorophenyl)-3-oxo-2,3-dihydropyridazine-4-carboxamide]
> 2e-05	5.7e-08	2.6e-08			C[C@H](NC(=O)c1cc(-c2ccc(Cl)cc2)nn(-c2cccc(F)c2)c1=O)C(C)(C)O [Example 392, 6-(4-chlorophenyl)-2-(3-fluorophenyl)-N-[(2S)-3-hydroxy-3-methylbutan-2-yl]-3-oxo-2,3-dihydropyridazine-4-carboxamide]

The next lines start with the molecule.

SMILES	IC50 (AHR [1]; [4]) [M]	IC50 [2, 5] [M]	IC50 (AHR [3]) [M]	IC50 (AHR [1]; [6]) [M]	IC50 [2, 7] [M]
CC(C)[C@@H](CO)NC(=O)c1cc(-c2ccc(Cl)cc2)nn(-c2cccc(F)c2)c1=O [Example 20, 6-(4-Chlorophenyl)-2-(3-fluorophenyl)-N-[(2S)-1-hydroxy-3-methylbutan-2-yl]-3-oxo-2,3-dihydropyridazine-4-carboxamide]	> 2e-05	1.22e-08	1.18e-08		
O=C(N[C@H]1COC[C@H]1O)c1cc(-c2ccc(Cl)cc2)nn(-c2cccc(F)c2)c1=O [Example 166, 6-(4-Chlorophenyl)-2-(3-fluorophenyl)-N-[(3S,4S)-4-hydroxytetrahydrofuran-3-yl]-3-oxo-2,3-dihydropyridazine-4-carboxamide]	> 2e-05	4.47e-08	4.05e-08		
CC(C)[C@@H](CO)NC(=O)c1cc(-c2ccc(OC(F)(F)F)cc2)nn(-c2cccc(F)c2)c1=O [Example 168, 2-(3-Fluorophenyl)-N-[(2S)-1-hydroxy-3-methylbutan-2-yl]-3-oxo-6-[4-(trifluoromethoxy)phenyl]-2,3-dihydropyridazine-4-carboxamide]	> 2e-05	2.16e-08	6.92e-09		
CC(C)C(O)CNC(=O)c1cc(-c2ccc(Cl)cc2)nn(-c2cccc(F)c2)c1=O (single isomer, unassigned) [Example 30, 6-(4-Chlorophenyl)-2-(3-fluorophenyl)-N-(2-hydroxy-3-methylbutyl]-3-oxo-2,3-dihydropyridazine-4-carboxamide]			1.33e-07	> 2e-05	1.77e-07
O=C(NC(CO)C1CCOC1)c1cc(-c2ccc(OC(F)(F)F)cc2)nn(-c2cccc(F)c2)c1=O (single isomer, unassigned) [Example 177, 2-(3-Fluorophenyl)-N-[2-hydroxy-1-(tetrahydrofuran-3-yl)ethyl]-3-oxo-6-[4-(trifluoromethoxy)phenyl]-2,3-dihydropyridazine-4-carboxamide]			3.19e-07	> 2e-05	6e-07
Cc1ccc(-c2cc(C(=O)N[C@H](CO)C(C)C)c(=O)n(-c3cccc(F)c3)n2)cc1 [Example 2, 2-(3-Fluorophenyl)-N-[(2S)-1-hydroxy-3-methylbutan-2-yl]-6-(4-methylphenyl)-3-oxo-2,3-dihydropyridazine-4-carboxamide]	> 2e-05	1.36e-08	1.03e-08		
Cc1ccc(-c2cc(C(=O)NCC(O)C(C)C)c(=O)n(-c3cc(F)cc(F)c3)n2)cc1 (single isomer, unassigned) [Example 58, 2-(3,5-Difluorophenyl)-N-(2-hydroxy-3-methylbutyl)-6-(4-methylphenyl)-3-oxo-2,3-dihydropyridazine-4-carboxamide]			4.28e-08	> 2e-05	1.34e-07
O=C(N[C@H]1CCCC[C@@H]1O)c1cc(-c2ccc(Cl)cc2)nn(-c2cccc(F)c2)c1=O (single isomer, unassigned) [Example 118, 6-(4-chlorophenyl)-2-(3-fluorophenyl)-N-(trans-2-hydroxycyclohexyl)-3-oxo-2,3-dihydropyridazine-4-carboxamide]	> 2e-05	3.13e-08	3.25e-08		
Cc1ccc(-c2cc(C(=O)N[C@@H](C)CO)c(=O)n(-c3cc(F)cc(F)c3)n2)cc1 [Example 55, 2-(3,5-Difluorophenyl)-N-[(2S)-1-hydroxypropan-2-yl]-6-(4-methylphenyl)-3-oxo-2,3-dihydropyridazine-4-carboxamide]	> 2e-05	1.54e-08	1.8e-08		
O=C(NCC(O)C(F)(F)F)c1cc(-c2ccc(Cl)cc2)nn(-c2cc(F)cc(F)c2)c1=O (single isomer, unassigned) [Example 45, 6-(4-Chlorophenyl)-2-(3,5-difluorophenyl)-3-oxo-N-(3,3,3-trifluoro-2-hydroxypropyl)-2,3-dihydropyridazine-4-carboxamide]	> 2e-05	1.18e-08	1.02e-08		
